Earlier results in US20210145844A1, “COMBINATION THERAPY FOR NICOTINE ADDICTION” (Amygdala Neurosciences, Inc., priority 2018, published 2021).

Key:
hMAO-A = molecular target: T1, hMAO-A (Homo sapiens, UniProt P21397); settings: read-out: IC50 hMAO-A
T1 sequence (P21397 1-527): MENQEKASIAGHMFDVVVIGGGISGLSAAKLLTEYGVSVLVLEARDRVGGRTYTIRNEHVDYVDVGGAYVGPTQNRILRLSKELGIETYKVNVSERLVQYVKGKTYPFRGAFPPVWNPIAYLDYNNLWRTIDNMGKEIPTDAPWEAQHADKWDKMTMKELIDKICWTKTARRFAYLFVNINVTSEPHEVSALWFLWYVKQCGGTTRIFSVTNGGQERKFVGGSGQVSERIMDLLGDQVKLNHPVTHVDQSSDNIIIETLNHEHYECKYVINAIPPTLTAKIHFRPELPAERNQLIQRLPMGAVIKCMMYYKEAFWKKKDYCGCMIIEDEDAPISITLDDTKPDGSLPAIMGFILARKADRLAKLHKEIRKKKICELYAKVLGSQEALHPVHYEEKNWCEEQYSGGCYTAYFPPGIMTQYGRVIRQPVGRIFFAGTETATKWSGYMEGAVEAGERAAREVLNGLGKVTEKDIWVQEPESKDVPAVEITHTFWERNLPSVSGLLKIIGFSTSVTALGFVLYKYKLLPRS

hMAO-B = molecular target: T2, hMAO-B (Homo sapiens, UniProt P27338); settings: read-out: IC50 hMAO-B
T2 sequence (P27338 1-520): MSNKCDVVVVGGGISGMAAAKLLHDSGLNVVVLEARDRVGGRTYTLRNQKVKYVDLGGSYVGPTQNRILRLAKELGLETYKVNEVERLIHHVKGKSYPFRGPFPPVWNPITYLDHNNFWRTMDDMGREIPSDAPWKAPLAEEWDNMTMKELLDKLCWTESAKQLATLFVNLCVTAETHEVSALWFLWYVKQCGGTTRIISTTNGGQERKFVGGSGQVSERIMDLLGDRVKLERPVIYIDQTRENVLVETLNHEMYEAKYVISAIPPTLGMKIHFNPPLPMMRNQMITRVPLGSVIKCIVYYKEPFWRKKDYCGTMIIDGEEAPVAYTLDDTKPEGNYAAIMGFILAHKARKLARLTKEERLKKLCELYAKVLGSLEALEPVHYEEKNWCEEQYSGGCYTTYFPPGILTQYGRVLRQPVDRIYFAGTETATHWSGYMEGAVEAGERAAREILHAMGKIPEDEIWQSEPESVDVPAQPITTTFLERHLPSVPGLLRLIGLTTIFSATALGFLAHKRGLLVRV

[1] = in vivo
human ALDH-2 enzyme = molecular target: T3, human ALDH-2 enzyme (Homo sapiens, UniProt P05091); settings: read-out: IC50 ALDH-2
T3 sequence (P05091 18-517): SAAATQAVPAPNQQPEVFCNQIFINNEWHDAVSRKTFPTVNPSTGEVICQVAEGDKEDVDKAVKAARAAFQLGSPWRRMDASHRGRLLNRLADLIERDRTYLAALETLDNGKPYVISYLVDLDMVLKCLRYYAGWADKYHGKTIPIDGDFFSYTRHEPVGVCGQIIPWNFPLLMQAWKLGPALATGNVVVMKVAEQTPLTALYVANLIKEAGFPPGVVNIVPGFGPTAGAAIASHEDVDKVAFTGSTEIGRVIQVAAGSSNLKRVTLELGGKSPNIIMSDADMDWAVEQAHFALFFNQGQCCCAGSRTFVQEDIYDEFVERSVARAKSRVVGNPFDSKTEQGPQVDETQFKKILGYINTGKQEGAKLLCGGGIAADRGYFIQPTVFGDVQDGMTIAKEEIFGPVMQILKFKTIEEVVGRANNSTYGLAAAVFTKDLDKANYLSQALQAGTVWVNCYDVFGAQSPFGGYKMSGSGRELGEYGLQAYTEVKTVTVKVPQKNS

| IC50 (hMAO-A) | IC50 (hMAO-B) | SMILES | also measured |
| --- | --- | --- | --- |
| > 130 µM | > 130 µM | COCCOc1cc(Cl)c(C(=O)NCc2ccc(-c3cc[nH]c(=O)c3)cc2)c(Cl)c1 [(3), 2,6-dichloro-4-(2-methoxyethoxy)-N-(4-(2-oxo-1,2-dihydropyridin-4-yl)benzyl)benzamide] | – |
| > 130 µM | > 130 µM | O=C(NCc1ccc(-c2cc[nH]c(=O)c2)cc1)c1cccc(F)c1Cl [(4), 2-chloro-3-fluoro-N-(4-(2-oxo-1,2-dihydropyridin-4-yl)benzyl)benzamide] | – |
| > 130 µM | > 130 µM | Cc1cccc(Cl)c1C(=O)NCc1ccc(-c2cc[nH]c(=O)c2)cc1 [(5), 2-chloro-6-methyl-N-(4-(2-oxo-1,2-dihydropyridin-4-yl)benzyl)benzamide] | – |
| > 130 µM | > 130 µM | Cc1cccc(C)c1C(=O)NCc1ccc(-c2cc[nH]c(=O)c2)cc1 [(6), 2,6-dimethyl-N-(4-(2-oxo-1,2-dihydropyridin-4-yl)benzyl)benzamide] | – |
| > 130 µM | > 130 µM | Cc1cc(-c2ccc(CNC(=O)c3c(Cl)cccc3Cl)cc2)cc(=O)[nH]1 [(7), 2,6-dichloro-N-[4-(6-methyl-2-oxo-1,2-dihydro-pyridin-4-yl)-benzyl]-benzamide] | – |
| > 130 µM | > 130 µM | O=C(NCc1ccc(-c2cc[nH]c(=O)c2)cc1)c1c(F)ccc(F)c1Cl [(8), 2-chloro-3,6-difluoro-N-(4-(2-oxo-1,2-dihydropyridin-4-yl)benzyl)benzamide] | – |
| > 130 µM | > 130 µM | Cc1cc(CNC(=O)c2c(Cl)cccc2Cl)ccc1-c1cc[nH]c(=O)c1 [(9), 2,6-dichloro-N-(3-methyl-4-(2-oxo-1,2-dihydropyridin-4-yl)benzyl)benzamide] | – |
| > 130 µM | > 130 µM | Cn1ccc(-c2ccc(CNC(=O)c3c(Cl)cccc3Cl)cc2)cc1=O [(10), 2,6-dichloro-N-(4-(1-methyl-2-oxo-1,2-dihydropyridin-4-yl)benzyl)benzamide] | – |
| > 130 µM | > 130 µM | O=C(NCc1ccc(-c2cc[nH]c(=O)c2)cc1)c1c(F)cccc1F [(11), 2,6-difluoro-N-(4-(2-oxo-1,2-dihydropyridin-4-yl)benzyl)benzamide] | – |
| > 130 µM | > 130 µM | O=C(NCc1ccc(-c2cc[nH]c(=O)c2)cc1)c1c(F)cccc1Cl [(12), 2-chloro-6-fluoro-N-(4-(2-oxo-1,2-dihydropyridin-4-yl)benzyl)benzamide] | – |
| > 130 µM | > 130 µM | O=C(NCc1ccc(-c2cc[nH]c(=O)c2)cc1F)c1c(Cl)cccc1Cl [(13), 2,6-dichloro-N-(2-fluoro-4-(2-oxo-1,2-dihydropyridin-4-yl)benzyl)benzamide] | – |
| > 130 µM | > 130 µM | O=C(NCc1ccc(-c2cc(=O)[nH]cc2F)cc1)c1c(Cl)cccc1Cl [(14), 2,6-dichloro-N-(4-(5-fluoro-2-oxo-1,2-dihydropyridin-4-yl)benzyl)benzamide] | – |
| > 130 µM | > 130 µM | O=C(NCc1ccc(-c2cc[nH]c(=O)c2)cc1)c1c(Cl)cccc1Cl [Compound (1), 2,6-dichloro-N-[4-(2-oxo-1,2-dihydro-pyridin-4-yl)-benzyl]-benzamide] | self-administration of nicotine (rats): suppress self-administration of nicotine in rats; intake of cocaine and alcohol [1]: reduce intake of cocaine and alcohol |
| – | – | O=C(O)C(O)C(O)C(=O)O.c1cnc2cc3c(cc2n1)[C@@H]1CNC[C@H]3C1 [varenicline, 7,8,9,10-tetrahydro-6,10-methano-6H-pyrazino[2,3-h][3]benzazepine] | varenicline discontinuation due to gastrointestinal side-effects (patients; estimated): 2%-8%; incidence of nausea at larger doses (patients; larger doses, placebo 10%): 30%; mild nausea, share of patients (patients; most common side effect, smoking cessation use): ~30 % of patients; incidence of nausea at smaller doses (patients; smaller doses, placebo 11%): 16% |

| SMILES | IC50 (hMAO-A) | IC50 (hMAO-B) | also measured |
| --- | --- | --- | --- |
| O=C(NCc1ccc(-c2ccn(COP(=O)(O)O)c(=O)c2)cc1)c1c(Cl)cccc1Cl [Compound (2), phosphoric acid mono-(4-{4-[(2,6-dichloro-benzoylamino)-methyl]-phenyl}-2-oxo-2H-pyridin-1-ylmethyl) ester] | > 130 µM | > 130 µM | in vivo metabolism of prodrug: undergoes in vivo cleavage of the phosphoric acid group to yield compound (1); IC50 (human ALDH-2 enzyme): > 10 µM |
